Experiment [1] has as its target panel of 391 kinases (Homo sapiens, UniProt P27361). In words: biochemical. To be noted: ERK1; ATP 1 µM; read-out: Control Compound IC50. The class given is biochemical.
In the next experiment the test system is STHdh^Q111/111 cells. In words: Toxicity assay: rescue from tunicamycin (ER stress)-induced apoptosis, FACS with propidium iodide (sub-G0/G1). It counts as cell-based, murine. Particulars: for rescue from ER stress-induced apoptosis: 0–100 μM, 48 h Tun exposure (Fig. 1C). Here is the method: (§1) STHdh^Q111/111 cells (used before[13]) or PERK+/+ or PERK−/− MEFs (kindly provided by David Ron, Univ. Cambridge) were incubated with Tun (10 μg/ml) for 48 h, which results in ER stress-induced cell death. Cells under the same conditions were incubated for the same times, together with Tun, with increasing concentrations of the different PERK modulators (0–120 μM) and the percent of apoptotic cells was measured by FACS cell cycle progression using propidium iodide (PI), considering the fraction beneath G0/G1. The relative apoptosis rate was calculated to be able to compare between compounds and experiments, where for each concentration curve the percent of apoptotic cells was considered 100 at concentration 0 of the PERK modulator, with only Tun. The graphs show the average relative apoptosis rate of at least 3 independent experiments for each compound.
(§2) Cells were washed with PBS and fixed with cold methanol. Before FACS analysis cells were washed with PBS, followed by addition of propidium iodide (PI) solution (10 μg/ml) and analysis by flow cytometry. Cells in sub-G0/G1 were counted as apoptotic/ dead.

For experiment [2], the target named is panel of 391 kinases (Homo sapiens, UniProt Q9BYP7). As to the kind of experiment: biochemical. The class given is biochemical. Particulars: WNK3; ATP 1 µM; read-out: Control Compound IC50.
Another experiment deals with T1, PERK (EIF2AK3) (Homo sapiens, UniProt Q9NZJ5).
T1 construct: GST; purchased Life technologies, Carlsbad, CA; host or cells: insect cells
T1 sequence (Q9NZJ5 536-1116): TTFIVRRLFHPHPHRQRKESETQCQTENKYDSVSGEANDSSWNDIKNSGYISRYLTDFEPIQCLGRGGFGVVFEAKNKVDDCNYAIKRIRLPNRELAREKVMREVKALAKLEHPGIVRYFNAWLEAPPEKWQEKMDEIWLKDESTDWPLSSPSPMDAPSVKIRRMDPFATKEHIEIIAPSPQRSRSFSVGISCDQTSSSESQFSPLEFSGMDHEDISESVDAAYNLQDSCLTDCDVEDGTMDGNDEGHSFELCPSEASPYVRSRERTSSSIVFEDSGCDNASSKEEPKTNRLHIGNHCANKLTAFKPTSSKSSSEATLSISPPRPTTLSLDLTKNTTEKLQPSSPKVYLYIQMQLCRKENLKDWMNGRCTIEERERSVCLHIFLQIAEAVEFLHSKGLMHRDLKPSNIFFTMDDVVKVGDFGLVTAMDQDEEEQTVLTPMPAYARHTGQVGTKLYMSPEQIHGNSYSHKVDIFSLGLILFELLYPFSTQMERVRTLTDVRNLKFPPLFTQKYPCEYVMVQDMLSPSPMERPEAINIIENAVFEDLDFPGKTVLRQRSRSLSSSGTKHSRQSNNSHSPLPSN
In words: In vitro HotSpot kinase assay on isolated PERK. It counts as biochemical. To be noted: HotSpot Kinase Assay. Here is the method: In vitro kinase assays with purified components and full kinase panel analysis was done at Reaction Biology Corp. (Malvern, PA, USA) using the HotSpot Kinase Assay. Reactions were performed for 20 min at room temp. using ^33P-ATP (Specific activity 10 μCi/μl) with 1 μM total ATP, 20 μM substrate and kinases in the nanomolar range in 20 mM Hepes (pH 7.5), 10 mM MgCl2, 1 mM EGTA, 0.02% Brij35, 0.02 mg/ml BSA, 0.1 mM Na3VO4, 2 mM DTT, 1% DMSO and other required factors depending on the assayed kinase.

The target in experiment [3] is panel of 391 kinases (Homo sapiens, UniProt Q9BQI3). As to the kind of experiment: biochemical. It counts as biochemical. To be noted: kinase EIF2AK1; 10-dose IC50 mode; 1 µM ATP; read-out: Control Compound IC50.
A further experiment deals with PERK-P. In words: PERK phosphorylation shift by immunoblot in MEF cells. To be noted: 3 hours, Thap 2 μg/ml. It counts as cell-based. A general note: A western blot detects proteins with antibodies after separation by electrophoresis.
The target of experiment [4] is panel of 391 kinases (Homo sapiens, UniProt Q96QT4). As to the kind of experiment: biochemical. It counts as biochemical. Particulars: kinase TRPM7/CHAK1; 10-dose IC50 mode; 1 µM ATP; read-out: Control Compound IC50.
Experiment [5] deals with panel of 391 kinases (Homo sapiens, UniProt P37173). As to the kind of experiment: biochemical. The class given is biochemical. To be noted: TGFBR2; ATP 1 µM; read-out: Control Compound IC50.
In experiment [6] the target is T2, panel of 391 kinases (Homo sapiens, UniProt P10398).
T2 sequence (P10398 1-606): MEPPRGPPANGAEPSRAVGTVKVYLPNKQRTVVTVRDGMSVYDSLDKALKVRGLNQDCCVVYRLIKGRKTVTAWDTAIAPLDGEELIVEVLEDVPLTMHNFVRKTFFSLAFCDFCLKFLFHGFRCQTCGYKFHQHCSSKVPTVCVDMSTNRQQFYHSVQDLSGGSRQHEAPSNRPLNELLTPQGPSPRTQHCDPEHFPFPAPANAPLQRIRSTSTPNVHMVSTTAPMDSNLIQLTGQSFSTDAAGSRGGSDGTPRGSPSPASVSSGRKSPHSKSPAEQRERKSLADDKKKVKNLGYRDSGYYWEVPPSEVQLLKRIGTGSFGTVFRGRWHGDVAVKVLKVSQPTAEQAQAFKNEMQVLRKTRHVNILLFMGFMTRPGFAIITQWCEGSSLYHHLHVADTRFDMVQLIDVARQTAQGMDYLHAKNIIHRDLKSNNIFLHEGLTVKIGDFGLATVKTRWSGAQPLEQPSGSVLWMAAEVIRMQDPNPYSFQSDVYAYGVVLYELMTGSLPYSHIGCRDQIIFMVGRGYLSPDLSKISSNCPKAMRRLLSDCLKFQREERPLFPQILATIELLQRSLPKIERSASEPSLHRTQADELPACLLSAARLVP
In words: biochemical. The class given is biochemical. To be noted: ARAF; ATP 1 µM; read-out: Control Compound IC50.

The target of experiment [7] is panel of 391 kinases (Homo sapiens, UniProt Q15118). As to the kind of experiment: biochemical. To be noted: kinase PDK1/PDHK1; 10-dose IC50 mode; 1 µM ATP; read-out: Control Compound IC50. It counts as biochemical.
Experiment [8] deals with panel of 391 kinases (Homo sapiens, UniProt Q15120). As to the kind of experiment: biochemical. Particulars: kinase PDK3/PDHK3; 10-dose IC50 mode; 1 µM ATP; read-out: Control Compound IC50. The class given is biochemical.
Experiment [9] addresses T3, panel of 391 kinases (Homo sapiens, UniProt Q9NR20).
T3 sequence (Q9NR20 1-520): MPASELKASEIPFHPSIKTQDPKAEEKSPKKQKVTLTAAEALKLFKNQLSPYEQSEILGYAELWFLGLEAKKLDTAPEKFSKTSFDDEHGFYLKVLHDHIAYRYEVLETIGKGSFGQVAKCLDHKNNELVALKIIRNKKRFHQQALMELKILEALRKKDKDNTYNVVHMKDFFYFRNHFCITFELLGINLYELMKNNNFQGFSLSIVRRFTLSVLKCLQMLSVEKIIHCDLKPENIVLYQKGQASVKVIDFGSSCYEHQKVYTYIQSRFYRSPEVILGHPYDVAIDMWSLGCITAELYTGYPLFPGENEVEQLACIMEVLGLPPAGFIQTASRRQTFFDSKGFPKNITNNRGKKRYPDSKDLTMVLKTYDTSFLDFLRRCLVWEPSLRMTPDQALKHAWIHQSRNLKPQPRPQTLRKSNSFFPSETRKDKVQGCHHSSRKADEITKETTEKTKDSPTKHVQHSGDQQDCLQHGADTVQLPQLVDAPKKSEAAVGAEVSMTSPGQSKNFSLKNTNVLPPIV
In words: biochemical. It counts as biochemical. To be noted: DYRK4; ATP 1 µM; read-out: Control Compound IC50.

The target of experiment [10] is panel of 391 kinases (Homo sapiens, UniProt P68400). In words: biochemical. It counts as biochemical. To be noted: CK2a; ATP 1 µM; read-out: Control Compound IC50.
The target in experiment [11] is panel of 391 kinases (Homo sapiens, UniProt Q9Y572). In words: biochemical. It counts as biochemical. To be noted: RIPK3; ATP 1 µM; read-out: Control Compound IC50.
Experiment [12] deals with panel of 391 kinases (Homo sapiens, UniProt Q9NYL2). In words: biochemical. Particulars: ZAK/MLTK; ATP 1 µM; read-out: Control Compound IC50. The class given is biochemical.
The target of experiment [13] is panel of 391 kinases (Homo sapiens, UniProt Q15119). In words: biochemical. Particulars: kinase PDK2/PDHK2; 10-dose IC50 mode; 1 µM ATP; read-out: Control Compound IC50. It counts as biochemical.
Experiment [14] deals with panel of 391 kinases (Homo sapiens, UniProt Q16654). In words: biochemical. Particulars: kinase PDK4/PDKH4; 10-dose IC50 mode; 1 µM ATP; read-out: Control Compound IC50. The class given is biochemical.
For the next experiment, the system named is PERK−/− MEF cells. As to the kind of experiment: Rescue from tunicamycin-induced apoptosis in PERK−/− MEFs. The class given is cell-based. Particulars: Tun. Here is the method: as §1, §2
For the next experiment, the system named is WT MEF cells. In words: Rescue from tunicamycin-induced apoptosis in WT MEFs. The class given is cell-based. To be noted: WT MEFs treated with Tun; read-out: IC50 for inhibition of apoptosis. As to the method: as §1, §2
The target in experiment [15] is panel of 391 kinases (Homo sapiens, UniProt Q9HC98). As to the kind of experiment: biochemical. Particulars: NEK6; ATP 1 µM; read-out: Control Compound IC50. It counts as biochemical.
Experiment [16] has as its target panel of 391 kinases (Homo sapiens, UniProt Q8TDX7). As to the kind of experiment: biochemical. To be noted: NEK7; ATP 1 µM; read-out: Control Compound IC50. It counts as biochemical.

Usually IC50 stands for the midpoint of a concentration-inhibition curve.

With `O=C(Nc1ccc2[nH]nc(-c3ccncc3)c2c1)[C@@H]1CCN(CC(=O)N2CCN(c3ccc(-c4ncccn4)cc3)CC2)C1` [SCH772984], on panel of 391 kinases [1], the IC50 was determined as 12.6 nM.
As to `COc1cc(/C=N\N(C)c2nc(-c3ccccc3)cc(-c3ccccc3)n2)cc(OC)c1` [MK26], in the experiment with STHdh^Q111/111 cells, the “rescue from ER stress-induced apoptosis” value was “inactive”.
Regarding `O=C1NC(=O)c2c1c(-c1ccccc1Cl)cc1[nH]c3ccc(O)cc3c21` [Wee-1 Inhibitor], the IC50 at panel of 391 kinases [2] was determined as 1910 nM.
For the compound `COc1cc(/C=N\N(C)c2nc(-c3ccccc3)cc(-c3ccc(Br)cc3)n2)ccc1O` [A4, reference compound], the “effect on activity of isolated PERK” value at PERK (EIF2AK3) was “activated PERK (EIF2AK3) in the nanomolar range, although to a small extent”. Moreover, the reduction of apoptosis result in the experiment on STHdh^Q111/111 cells (5 μM, 48 h Tun exposure) is recorded as “no significant effect”.
Take `Cn1cc(-c2ccc3c(c2)CCN3C(=O)Cc2cccc(C(F)(F)F)c2)c2c(N)ncnc21` [GSK606414, 7-methyl-5-(1-{[3-(trifluoromethyl)phenyl]acetyl}-2,3-dihydro-1H-indol-5-yl)-7H-p yrrolo[2,3-d]pyrimidin-4-amine]: the “effect on activity of isolated PERK” value at PERK (EIF2AK3) is “clear inhibitory effect”.
Regarding `Cn1cc(-c2ccc3c(c2)CCN3C(=O)Cc2cccc(C(F)(F)F)c2)c2c(N)ncnc21` [GSK-2606414], the IC50 on panel of 391 kinases [3] is 166 nM.
For the compound `C/C=C(/C)C(=O)O[C@H]1C(C)=C2[C@H]([C@@H]1OC(=O)CCCCCCC)[C@@](C)(OC(C)=O)C[C@H](OC(=O)CCC)[C@@]1(O)[C@H]2OC(=O)[C@@]1(C)O` [Thap, thapsigargin, reference compound], the “PERK migration shift (PERK-P)” value in the experiment on PERK-P is given as “shift of PERK consistent with its phosphorylation”.
On to `CCCCCCCCCCCCCCCCn1cc[n+](Cc2ccccc2)c1C` [NH125], for which, on panel of 391 kinases [4], the IC50 is 11000 nM.
As for `c1ccc2c(-c3cnn4cc(-c5ccc(N6CCNCC6)cc5)cnc34)ccnc2c1` [LDN193189], the IC50 at panel of 391 kinases [5] stood at 89.6 nM.
Regarding `O=C1Nc2ccc(I)cc2/C1=C/c1cc(Br)c(O)c(Br)c1` [GW5074], the IC50 at panel of 391 kinases [6] turned out to be 29.3 nM; at panel of 391 kinases [7], 10300 nM; on panel of 391 kinases [8], 1890 nM; at panel of 391 kinases [9], 1140 nM; at panel of 391 kinases [10] it was 35 nM; at panel of 391 kinases [11] it was 1140 nM. In addition, the IC50 on panel of 391 kinases [12] worked out at 1340 nM; on panel of 391 kinases [13] it was 5520 nM; at panel of 391 kinases [14], 1680 nM.
`CCN(CC)CCC(=O)N1N=C(c2c(-c3ccccc3)c3cc(Br)ccc3[nH]c2=O)CC1c1ccc(Br)cc1` (stereo not drawn) [CCT020312, reference compound]: in the experiment with PERK−/− MEF cells, the “protection from ER stress-induced cell death” value is on record as “failed to protect”. The IC50 in the experiment on WT MEF cells was 11100 nM; in the experiment on STHdh^Q111/111 cells (STHdh^Q111/111 cells treated with Tun, read-out: IC50 for inhibition of apoptosis) it was 32400 nM. Moreover, the “protection from apoptosis at lower concentrations” value in the experiment with STHdh^Q111/111 cells (below 10 μM, Tun) is “failed to be protective”.
With `COc1ccc(/C=N\N(C)c2nc(-c3ccccc3)cc(-c3ccccc3)n2)cc1O` [MK-29], in the experiment on STHdh^Q111/111 cells, the “rescue from ER stress-induced apoptosis” value was “inactive”.
As for `COc1cc(/C=N\N(C)c2nc(-c3ccccc3)cc(-c3ccccc3)n2)cc(OC)c1O` [MK-30], in the experiment on STHdh^Q111/111 cells, the “rescue from ER stress-induced apoptosis” value was “inactive”.
With `O=C1Nc2ccc3ncsc3c2/C1=C/c1cnc[nH]1` [PKR Inhibitor], the IC50 came to 5690 nM on panel of 391 kinases [15] and 14800 nM on panel of 391 kinases [16].

Source of the values: article PMC7181660, “A novel specific PERK activator reduces toxicity and extends survival in Huntington's disease models” (Scientific Reports, 2020).
